According to patent publication US20250011368A1, “DLL3 TARGETING PEPTIDES AND CONSTRUCTS THEREOF” (MARIANA ONCOLOGY INC., priority 2023, published 2025):
Numbered stars: 1 amine (or outer) side, 2 acyl side, 3 side chain; on linkers, the order of the positions; unused ones are H or OH. Bridge positions count the residues as written; N and C are the ends. Square brackets hold non-standard residues; d marks the D form. Side chains are listed from the residue outwards. Peptide text beside a SMILES is read from it. * marks the point of attachment. ξ: configuration not given here. X9 = O=C(O)CN1CCN(CC(=O)O)CCN(CC(=O)NCCCOCCOCCOCCCN*)CCN(CC(=O)O)CC1; DOTA = O=C(O)CN1CCN(CC(=O)O)CCN(CC(=O)*)CCN(CC(=O)O)CC1; X3 = CC[C@H](c1c[nH]c2ccccc12)[C@H](N[*:1])C(=O)[*:2]; Trp(5-F) = N[C@@H](Cc1c[nH]c2ccc(F)cc12)C(=O)O; Trp(7-aza) = N[C@@H](Cc1c[nH]c2ncccc12)C(=O)O; Pro(trans-4-F) = O=C(O)[C@@H]1C[C@@H](F)CN1; Lys(Me3) = C[N+](C)(C)CCCC[C@H](N)C(=O)O; PEG8 = NCCOCCOCCOCCOCCOCCOCCOCCOCCC(=O)O; γGlu = O=C(O)[C@H](CCC(=O)[*:2])N[*:1]; 1Nal = N[C@@H](Cc1cccc2ccccc12)C(=O)O; 2Nal = N[C@@H](Cc1ccc2ccccc2c1)C(=O)O; Gly(4-THP) = N[C@H](C(=O)O)C1CCOCC1; Nva(3-Et) = CCC(CC)[C@H](N)C(=O)O; Suc = O=C(CCC(=O)[*:2])[*:1]; Nle = CCCC[C@H](N)C(=O)O; Aze = O=C(O)[C@@H]1CCN1; Abu = CC[C@H](N)C(=O)O; ξD = NC(CC(=O)O)C(=O)O

Molecular target: T1, human DLL3 (Homo sapiens, UniProt Q9NYJ7)
T1 sequence (Q9NYJ7 27-618): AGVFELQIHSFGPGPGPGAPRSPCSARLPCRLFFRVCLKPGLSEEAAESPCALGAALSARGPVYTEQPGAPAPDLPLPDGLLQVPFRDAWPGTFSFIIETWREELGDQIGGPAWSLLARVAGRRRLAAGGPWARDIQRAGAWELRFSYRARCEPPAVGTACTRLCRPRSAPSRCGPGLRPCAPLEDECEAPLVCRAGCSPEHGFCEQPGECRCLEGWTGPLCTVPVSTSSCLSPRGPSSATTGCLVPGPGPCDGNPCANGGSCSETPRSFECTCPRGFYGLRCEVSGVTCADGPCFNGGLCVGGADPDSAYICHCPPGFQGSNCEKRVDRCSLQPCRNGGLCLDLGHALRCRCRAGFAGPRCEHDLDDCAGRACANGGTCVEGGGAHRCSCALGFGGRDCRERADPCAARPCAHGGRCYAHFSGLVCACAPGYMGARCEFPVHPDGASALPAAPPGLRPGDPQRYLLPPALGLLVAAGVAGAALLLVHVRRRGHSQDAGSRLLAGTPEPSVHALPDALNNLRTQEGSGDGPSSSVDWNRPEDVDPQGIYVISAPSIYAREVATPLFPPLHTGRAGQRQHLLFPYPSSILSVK
Assay: Affinity determination by Surface Plasmon Resonance (SPR)
Format: binding
Details: 25° C., biotinylated human DLL3 immobilized on streptavidin sensor chip, 1:1 binding model; read-out: SPR KD
Summary of the method: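 Biotinylated human DLL3 was captured on a streptavidin chip with a reference surface. Compounds at several concentrations were injected at 100 μL/minute in phosphate buffer (137 mM NaCl, 2.7 mM KCl, 0.05% P20, 2% DMSO). Affinity and kinetics came from 1:1 model fits of the sensorgrams.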

Molecule `CC[C@H](C)[C@H](NC(=O)[C@@H](NC(=O)[C@H](Cc1c[nH]c2ccccc12)NC(C)=O)[C@@H](C)O)C(=O)N[C@H]1CSSC[C@@H](C(=O)N[C@@H](Cc2c[nH]c3ccccc23)C(=O)N2CCC[C@H]2C(=O)N[C@H](CCCCNC(=O)CNC(=O)CNC(=O)CCC(=O)NCCCOCCOCCOCCCNC(=O)CN2CCN(CC(=O)O)CCN(CC(=O)O)CCN(CC(=O)O)CC2)C(N)=O)NC(=O)[C@H](CC(=O)O)NC(=O)[C@H](Cc2cnc[nH]2)NC(=O)[C@H](Cc2ccc3ccccc3c2)NC(=O)[C@H](CC(N)=O)NC(=O)[C@H](CC(N)=O)NC1=O` [compound 230, Ac-W-T-I-C(3)-N-N-(2Nal)-H-D-C(3)-W-P-[D-Lys(G-G-TTDS-DOTA)]-NH2] (Ac-WTICNN[2Nal]HDCWP[dK]([Gly-Gly-Suc-X9])-NH2; disulfide 4-10) has a Kd of under 1 nM.
`CC[C@H](C)[C@H](NC(=O)[C@@H](NC(=O)[C@H](Cc1c[nH]c2ccccc12)NC(C)=O)[C@@H](C)O)C(=O)N[C@H]1CSSC[C@@H](C(=O)N[C@@H](Cc2c[nH]c3ccccc23)C(=O)N2CCC[C@H]2C(=O)NCC(=O)NCC(=O)N[C@@H](CO)C(=O)NCC(=O)NCC(=O)N[C@@H](CO)C(=O)N[C@H](CCCCNC(=O)CN2CCN(CC(=O)O)CCN(CC(=O)O)CCN(CC(=O)O)CC2)C(N)=O)NC(=O)[C@H](CC(=O)O)NC(=O)[C@H](Cc2cnc[nH]2)NC(=O)[C@H](Cc2ccc3ccccc3c2)NC(=O)[C@H](CC(N)=O)NC(=O)[C@H](CC(N)=O)NC1=O` [compound 231, Ac-W-T-I-C(3)-N-N-(2Nal)-H-D-C(3)-W-P-G-G-S-G-G-S-[D-Lys(DOTA)]-NH2] (Ac-WTICNN[2Nal]HDCWPGGSGGS[dK](DOTA)-NH2; disulfide 4-10) gave a Kd of under 1 nM.
In the case of `CC[C@H](C)[C@H](NC(=O)[C@@H](NC(=O)[C@H](Cc1c[nH]c2ccccc12)NC(C)=O)[C@@H](C)O)C(=O)N[C@H]1CSSC[C@@H](C(=O)N[C@@H](Cc2c[nH]c3ccccc23)C(=O)N2CCC[C@H]2C(=O)NCC(=O)N[C@@H](CO)C(=O)NCC(=O)N[C@@H](CO)C(=O)NCC(=O)N[C@@H](CO)C(=O)N[C@H](CCCCNC(=O)CN2CCN(CC(=O)O)CCN(CC(=O)O)CCN(CC(=O)O)CC2)C(N)=O)NC(=O)C(CC(=O)O)NC(=O)[C@H](Cc2cnc[nH]2)NC(=O)[C@H](Cc2ccc3ccccc3c2)NC(=O)[C@H](CC(N)=O)NC(=O)[C@H](CC(N)=O)NC1=O` (stereo partly drawn) [compound 232, Ac-W-T-I-C(3)-N-N-(2Nal)-H-D-C(3)-W-P-G-S-G-S-G-S-[D-Lys(DOTA)]-NH2] (Ac-WTICNN[2Nal]H[ξD]CWPGSGSGS[dK](DOTA)-NH2; disulfide 4-10), the Kd is reported as under 1 nM.
Molecule `CC[C@H](C)[C@H](NC(=O)[C@@H](NC(=O)[C@H](Cc1c[nH]c2ccccc12)NC(C)=O)[C@@H](C)O)C(=O)N[C@H]1CSSC[C@@H](C(=O)N[C@@H](Cc2c[nH]c3ccccc23)C(=O)N2CCC[C@H]2C(=O)N[C@@H](CCC(=O)N[C@H](CCCCNC(=O)CN2CCN(CC(=O)O)CCN(CC(=O)O)CCN(CC(=O)O)CC2)C(N)=O)C(=O)O)NC(=O)[C@H](CC(=O)O)NC(=O)[C@H](Cc2cnc[nH]2)NC(=O)[C@H](Cc2ccc3ccccc3c2)NC(=O)[C@H](CC(N)=O)NC(=O)[C@H](CC(N)=O)NC1=O` [compound 233, Ac-W-T-I-C(3)-N-N-(2Nal)-H-D-C(3)-W-P-gE-[D-Lys(DOTA)]-NH2] (Ac-WTICNN[2Nal]HDCWP[γGlu][dK](DOTA)-NH2; disulfide 4-10) has a Kd of under 1 nM.
In the case of `CC[C@H](NC(C)=O)C(=O)N[C@H](C(=O)N[C@H](C(=O)N[C@H]1CSSC[C@@H](C(=O)N[C@@H](Cc2c[nH]c3ccccc23)C(=O)N2CCC[C@H]2C(=O)N[C@@H](CCC(=O)N[C@@H](CCC(=O)N[C@@H](CCC(=O)N[C@H](CCCCNC(=O)CN2CCN(CC(=O)O)CCN(CC(=O)O)CCN(CC(=O)O)CC2)C(N)=O)C(=O)O)C(=O)O)C(=O)O)NC(=O)[C@H](CC(=O)O)NC(=O)[C@H](Cc2cnc[nH]2)NC(=O)[C@H](Cc2ccc3ccccc3c2)NC(=O)[C@H](CC(N)=O)NC(=O)[C@H](CC(N)=O)NC1=O)[C@H](CC)c1c[nH]c2ccccc12)[C@@H](C)O` [compound 234, Ac-W-T-I-C(3)-N-N-(2Nal)-H-D-C(3)-W-P-gE-gE-gE-[D-Lys(DOTA)]-NH2] (Ac-[Abu]T[X3]CNN[2Nal]HDCWP[γGlu][γGlu][γGlu][dK](DOTA)-NH2; disulfide 4-10), the Kd is reported as under 1 nM.
`CC[C@H](C)[C@H](NC(=O)[C@@H](NC(=O)[C@H](Cc1c[nH]c2ccccc12)NC(C)=O)[C@@H](C)O)C(=O)N[C@H]1CSSC[C@@H](C(=O)N[C@@H](Cc2c[nH]c3ccccc23)C(=O)N2CCC[C@H]2C(=O)N2CCC[C@@H]2C(=O)NCCOCCOCCOCCOCCOCCOCCOCCOCCC(=O)N[C@H](CCCCNC(=O)CN2CCN(CC(=O)O)CCN(CC(=O)O)CCN(CC(=O)O)CC2)C(N)=O)NC(=O)[C@H](CC(=O)O)NC(=O)[C@H](Cc2cnc[nH]2)NC(=O)[C@H](Cc2ccc3ccccc3c2)NC(=O)[C@H](CC(N)=O)NC(=O)[C@H](CC(N)=O)NC1=O` [compound 235, Ac-W-T-I-C(3)-N-N-(2Nal)-H-D-C(3)-W-P-(D-Pro)-PEG8-[D-Lys(DOTA)]-NH2] (Ac-WTICNN[2Nal]HDCWP[dP][PEG8][dK](DOTA)-NH2; disulfide 4-10) was tested, and the Kd was under 1 nM.
`CC[C@H](C)[C@H](NC(=O)[C@@H](NC(=O)[C@H](Cc1c[nH]c2ccccc12)NC(C)=O)[C@@H](C)O)C(=O)N[C@H]1CSSC[C@@H](C(=O)N[C@@H](Cc2c[nH]c3ccccc23)C(=O)N2CCC[C@H]2C(=O)N[C@H](CCCCNC(=O)CN2CCN(CC(=O)O)CCN(CC(=O)O)CCN(CC(=O)O)CC2)C(N)=O)NC(=O)[C@H](CC(=O)O)NC(=O)[C@H](CCCC[N+](C)(C)C)NC(=O)[C@H](Cc2ccc3ccccc3c2)NC(=O)[C@H](CC(N)=O)NC(=O)[C@H](CC(N)=O)NC1=O` [compound 238, Ac-W-T-I-C(3)-N-N-(2Nal)-(K(Me)3)-D-C(3)-W-P-[D-Lys(DOTA)]-NH2] (Ac-WTICNN[2Nal][Lys(Me3)]DCWP[dK](DOTA)-NH2; disulfide 4-10) gave a Kd of 1 to 10 nM.
For `CCC(CC)[C@H](NC(=O)[C@@H](NC(=O)[C@H](Cc1c[nH]c2ccc(F)cc12)NC(C)=O)[C@@H](C)O)C(=O)N[C@H]1CSSC[C@@H](C(=O)N[C@@H](Cc2c[nH]c3ncccc23)C(=O)N2CC[C@H]2C(=O)N[C@@H](CCCCNC(=O)CN2CCN(CC(=O)O)CCN(CC(=O)O)CCN(CC(=O)O)CC2)C(N)=O)NC(=O)[C@H](CC(=O)O)NC(=O)[C@H](Cc2c[nH]cn2)NC(=O)[C@H](Cc2cccc3ccccc23)NC(=O)[C@H](CC(N)=O)NC(=O)[C@H](CC(N)=O)NC1=O` [compound 241, Ac-(5Fluoro-W)-T-(Env)-C(3)-N-N-(1Nal)-H-D-C(3)-(7Aza-W)-(Aze)-[D-Lys(DOTA)]-NH2] (Ac-[Trp(5-F)]T[Nva(3-Et)]CNN[1Nal]HDC[Trp(7-aza)][Aze]K(DOTA)-NH2; disulfide 4-10), the Kd was 1 to 10 nM.
`CCC(CC)[C@H](NC(=O)[C@@H](NC(=O)[C@H](Cc1c[nH]c2ccc(F)cc12)NC(C)=O)[C@@H](C)O)C(=O)N[C@H]1CSSC[C@@H](C(=O)N[C@@H](Cc2c[nH]c3ncccc23)C(=O)N2C[C@H](F)C[C@H]2C(=O)N[C@@H](CCCCNC(=O)CN2CCN(CC(=O)O)CCN(CC(=O)O)CCN(CC(=O)O)CC2)C(N)=O)NC(=O)[C@H](CC(=O)O)NC(=O)[C@H](Cc2cnc[nH]2)NC(=O)[C@H](Cc2ccc3ccccc3c2)NC(=O)[C@H](CC(N)=O)NC(=O)[C@H](CC(N)=O)NC1=O` [compound 242, Ac-(5Fluoro-W)-T-(Env)-C(3)-N-N-(2Nal)-H-D-C(3)-(7Aza-W)-(trans4Fluoro-P)-[D-Lys(DOTA)]-NH2] (Ac-[Trp(5-F)]T[Nva(3-Et)]CNN[2Nal]HDC[Trp(7-aza)][Pro(trans-4-F)]K(DOTA)-NH2; disulfide 4-10) showed a Kd of under 1 nM.
Molecule `CC(=O)N[C@@H](Cc1c[nH]c2ccc(F)cc12)C(=O)N[C@H](C(=O)N[C@H](C(=O)N[C@H]1CSSC[C@@H](C(=O)N[C@@H](Cc2c[nH]c3ncccc23)C(=O)N2C[C@H](F)C[C@H]2C(=O)N[C@@H](CCCCNC(=O)CN2CCN(CC(=O)O)CCN(CC(=O)O)CCN(CC(=O)O)CC2)C(N)=O)NC(=O)[C@H](CC(=O)O)NC(=O)[C@H](Cc2c[nH]cn2)NC(=O)[C@H](Cc2ccc3ccccc3c2)NC(=O)[C@H](CC(N)=O)NC(=O)[C@H](CC(N)=O)NC1=O)C1CCOCC1)[C@@H](C)O` [compound 243, Ac-(5Fluoro-W)-T-(THPG)-C(3)-N-N-(2Nal)-H-D-C(3)-(7Aza-W)-(trans4Fluoro-P)-[D-Lys(DOTA)]-NH2] (Ac-[Trp(5-F)]T[Gly(4-THP)]CNN[2Nal]HDC[Trp(7-aza)][Pro(trans-4-F)]K(DOTA)-NH2; disulfide 4-10) has a Kd of under 1 nM.
Molecule `CCCC[C@H](NC(=O)[C@@H](NC(=O)[C@H](Cc1c[nH]c2ccc(F)cc12)NC(C)=O)[C@@H](C)O)C(=O)N[C@H]1CSSC[C@@H](C(=O)N[C@@H](Cc2c[nH]c3ncccc23)C(=O)N2C[C@H](F)C[C@H]2C(=O)N[C@H](CCCCNC(=O)CN2CCN(CC(=O)O)CCN(CC(=O)O)CCN(CC(=O)O)CC2)C(N)=O)NC(=O)[C@H](CC(=O)O)NC(=O)[C@H](Cc2c[nH]cn2)NC(=O)[C@H](Cc2ccc3ccccc3c2)NC(=O)[C@H](CC(N)=O)NC(=O)[C@H](CC(N)=O)NC1=O` [compound 244, Ac-(5Fluoro-W)-T-(Nle)-C(3)-N-N-(2Nal)-H-D-C(3)-(7Aza-W)-(trans4Fluoro-P)-[D-Lys(DOTA)]-NH2] (Ac-[Trp(5-F)]T[Nle]CNN[2Nal]HDC[Trp(7-aza)][Pro(trans-4-F)][dK](DOTA)-NH2; disulfide 4-10) has a Kd of under 1 nM.
